Test results as given in the kinase profiling compilation of Christmann-Franck et al. (2016).

Key:
Test in all cases: radiometric filter-binding kinase assay, Kinase HotSpot
Settings in all cases: compound 0.5 µM; ATP 10 µM
[1] = molecular target: ACVR1 (human) (UniProt Q04771)
[2] = molecular target: AURKC (human) (UniProt Q9UQB9)
[3] = molecular target: BRAF (human) (UniProt P15056)
[4] = molecular target: CAMK4 (human) (UniProt Q16566)
[5] = molecular target: CDC42BPB (human) (UniProt Q9Y5S2)
[6] = molecular target: CDK3 CCNE1 (human) (UniProt Q00526+P24864)
[7] = molecular target: CLK1 (human) (UniProt P49759)
[8] = molecular target: CSK (human) (UniProt P41240)
[9] = molecular target: CSNK2A1 (human) (UniProt P68400)
[10] = molecular target: DAPK3 (human) (UniProt O43293)
[11] = molecular target: EPHA3 (human) (UniProt P29320)
[12] = molecular target: EPHA6 (human) (UniProt Q9UF33)
[13] = molecular target: FGFR1 (human) (UniProt P11362)
[14] = molecular target: FGR (human) (UniProt P09769)
[15] = molecular target: HIPK2 (human) (UniProt Q9H2X6)
[16] = molecular target: HIPK3 (human) (UniProt Q9H422)
[17] = molecular target: HIPK4 (human) (UniProt Q8NE63)
[18] = molecular target: INSRR (human) (UniProt P14616)
[19] = molecular target: IRAK1 (human) (UniProt P51617)
[20] = molecular target: KIT (human) (UniProt P10721)
[21] = molecular target: LTK (human) (UniProt P29376)
[22] = molecular target: MAPK8 (human) (UniProt P45983)
[23] = molecular target: MST1R (human) (UniProt Q04912)
[24] = molecular target: MYO3B (human) (UniProt Q8WXR4)
[25] = molecular target: NEK1 (human) (UniProt Q96PY6)
[26] = molecular target: NEK9 (human) (UniProt Q8TD19)
[27] = molecular target: PAK6 (human) (UniProt Q9NQU5)
[28] = molecular target: PHKG1 (human) (UniProt Q16816)
[29] = molecular target: PLK1 (human) (UniProt P53350)
[30] = molecular target: PRKACG (human) (UniProt P22612)
[31] = molecular target: PRKCD (human) (UniProt Q05655)
[32] = molecular target: SGK3 (human) (UniProt Q96BR1)
[33] = molecular target: STK38 (human) (UniProt Q15208)
[34] = molecular target: TAOK2 (human) (UniProt Q9UL54)
[35] = molecular target: TLK2 (human) (UniProt Q86UE8)
[36] = molecular target: TSSK1B (human) (UniProt Q9BXA7)
[37] = molecular target: TSSK2 (human) (UniProt Q96PF2)
[38] = molecular target: TXK (human) (UniProt P42681)
[39] = molecular target: ULK3 (human) (UniProt Q6PHR2)
[40] = molecular target: MET (human) (UniProt P08581)
[41] = molecular target: RPS6KA3 KD1 KD2 (human) (UniProt P51812)

Chain of PHKG1 (human) (Q16816 whole entry, looked up): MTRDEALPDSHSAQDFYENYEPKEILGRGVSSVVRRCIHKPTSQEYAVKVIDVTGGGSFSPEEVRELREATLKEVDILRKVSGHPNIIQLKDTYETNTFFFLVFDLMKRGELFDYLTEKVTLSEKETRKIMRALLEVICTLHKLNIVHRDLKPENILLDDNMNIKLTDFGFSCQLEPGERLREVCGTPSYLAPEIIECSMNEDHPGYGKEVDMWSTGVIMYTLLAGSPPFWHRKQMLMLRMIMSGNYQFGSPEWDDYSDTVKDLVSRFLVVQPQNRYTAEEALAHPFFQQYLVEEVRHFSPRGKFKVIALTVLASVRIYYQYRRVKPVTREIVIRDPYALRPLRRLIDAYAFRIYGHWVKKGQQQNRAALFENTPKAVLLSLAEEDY
Chain of MET (human) (P08581 whole entry, looked up): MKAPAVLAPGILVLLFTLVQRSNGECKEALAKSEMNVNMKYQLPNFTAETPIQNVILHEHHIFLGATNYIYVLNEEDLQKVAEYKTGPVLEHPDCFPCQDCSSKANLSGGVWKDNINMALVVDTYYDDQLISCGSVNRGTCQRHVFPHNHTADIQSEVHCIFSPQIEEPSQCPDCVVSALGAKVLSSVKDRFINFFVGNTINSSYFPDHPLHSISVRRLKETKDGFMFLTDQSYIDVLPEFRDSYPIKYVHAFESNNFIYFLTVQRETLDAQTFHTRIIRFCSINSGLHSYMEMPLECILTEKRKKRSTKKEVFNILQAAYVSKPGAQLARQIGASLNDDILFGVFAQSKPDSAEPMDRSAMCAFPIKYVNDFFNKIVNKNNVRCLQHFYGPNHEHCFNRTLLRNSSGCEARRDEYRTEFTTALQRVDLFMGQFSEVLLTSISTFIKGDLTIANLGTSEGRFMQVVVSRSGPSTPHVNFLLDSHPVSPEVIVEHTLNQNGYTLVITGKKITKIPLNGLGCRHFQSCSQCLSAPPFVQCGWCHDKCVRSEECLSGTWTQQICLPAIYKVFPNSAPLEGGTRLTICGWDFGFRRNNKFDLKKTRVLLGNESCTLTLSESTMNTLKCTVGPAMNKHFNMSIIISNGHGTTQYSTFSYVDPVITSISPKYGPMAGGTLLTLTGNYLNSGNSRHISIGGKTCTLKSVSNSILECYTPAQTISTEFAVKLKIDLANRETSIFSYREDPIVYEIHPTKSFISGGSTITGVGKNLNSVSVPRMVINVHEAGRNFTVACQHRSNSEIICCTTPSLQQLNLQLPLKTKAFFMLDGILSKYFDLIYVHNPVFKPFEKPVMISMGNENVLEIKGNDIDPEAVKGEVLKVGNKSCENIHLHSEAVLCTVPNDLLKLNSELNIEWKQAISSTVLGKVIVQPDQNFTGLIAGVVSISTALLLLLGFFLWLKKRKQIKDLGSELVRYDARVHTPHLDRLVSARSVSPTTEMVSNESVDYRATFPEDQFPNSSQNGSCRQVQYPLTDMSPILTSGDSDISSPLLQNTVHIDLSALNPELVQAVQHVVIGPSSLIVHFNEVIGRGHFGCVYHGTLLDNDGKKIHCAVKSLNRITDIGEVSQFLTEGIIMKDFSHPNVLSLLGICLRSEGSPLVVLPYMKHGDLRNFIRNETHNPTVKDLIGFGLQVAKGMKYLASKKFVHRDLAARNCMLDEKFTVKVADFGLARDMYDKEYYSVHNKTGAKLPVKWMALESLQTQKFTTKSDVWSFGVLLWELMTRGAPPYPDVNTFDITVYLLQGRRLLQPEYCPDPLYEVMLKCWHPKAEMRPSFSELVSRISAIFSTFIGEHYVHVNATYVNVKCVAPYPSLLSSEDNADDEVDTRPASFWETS
Chain of CSNK2A1 (human) (P68400 whole entry, looked up): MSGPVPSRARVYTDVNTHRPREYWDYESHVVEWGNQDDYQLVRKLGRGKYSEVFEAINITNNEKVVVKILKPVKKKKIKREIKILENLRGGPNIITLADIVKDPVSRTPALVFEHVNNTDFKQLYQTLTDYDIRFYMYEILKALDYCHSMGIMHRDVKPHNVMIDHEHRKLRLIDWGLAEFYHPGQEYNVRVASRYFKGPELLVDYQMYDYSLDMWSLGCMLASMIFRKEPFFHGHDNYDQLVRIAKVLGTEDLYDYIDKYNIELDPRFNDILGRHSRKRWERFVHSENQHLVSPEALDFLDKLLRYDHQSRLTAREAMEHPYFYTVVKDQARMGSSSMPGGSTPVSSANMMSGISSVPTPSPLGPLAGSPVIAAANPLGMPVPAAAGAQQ
Chain of TSSK2 (human) (Q96PF2 whole entry, looked up): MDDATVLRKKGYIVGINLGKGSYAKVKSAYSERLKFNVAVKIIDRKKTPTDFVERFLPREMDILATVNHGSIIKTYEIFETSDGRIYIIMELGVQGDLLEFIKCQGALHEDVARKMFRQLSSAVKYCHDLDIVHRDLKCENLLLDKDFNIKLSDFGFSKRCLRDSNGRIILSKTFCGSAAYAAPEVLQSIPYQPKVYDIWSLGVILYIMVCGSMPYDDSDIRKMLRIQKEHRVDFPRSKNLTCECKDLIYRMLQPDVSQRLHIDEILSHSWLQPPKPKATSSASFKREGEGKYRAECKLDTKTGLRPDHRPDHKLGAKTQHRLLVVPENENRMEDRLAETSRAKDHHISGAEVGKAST
Chain of SGK3 (human) (Q96BR1 whole entry, looked up): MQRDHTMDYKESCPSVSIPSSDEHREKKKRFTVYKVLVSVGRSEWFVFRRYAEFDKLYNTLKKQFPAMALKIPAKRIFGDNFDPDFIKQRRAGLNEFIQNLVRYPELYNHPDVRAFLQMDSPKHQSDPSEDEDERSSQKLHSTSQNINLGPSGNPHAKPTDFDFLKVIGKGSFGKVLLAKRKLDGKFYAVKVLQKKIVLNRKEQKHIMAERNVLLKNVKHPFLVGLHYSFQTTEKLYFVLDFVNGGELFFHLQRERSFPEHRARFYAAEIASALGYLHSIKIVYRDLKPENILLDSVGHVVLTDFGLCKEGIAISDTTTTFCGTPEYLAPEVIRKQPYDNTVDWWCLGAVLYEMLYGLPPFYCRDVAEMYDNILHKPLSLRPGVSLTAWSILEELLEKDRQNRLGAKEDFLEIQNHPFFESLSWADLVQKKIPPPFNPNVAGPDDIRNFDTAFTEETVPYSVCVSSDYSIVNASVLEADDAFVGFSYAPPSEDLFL
Chain of EPHA3 (human) (P29320 whole entry, looked up): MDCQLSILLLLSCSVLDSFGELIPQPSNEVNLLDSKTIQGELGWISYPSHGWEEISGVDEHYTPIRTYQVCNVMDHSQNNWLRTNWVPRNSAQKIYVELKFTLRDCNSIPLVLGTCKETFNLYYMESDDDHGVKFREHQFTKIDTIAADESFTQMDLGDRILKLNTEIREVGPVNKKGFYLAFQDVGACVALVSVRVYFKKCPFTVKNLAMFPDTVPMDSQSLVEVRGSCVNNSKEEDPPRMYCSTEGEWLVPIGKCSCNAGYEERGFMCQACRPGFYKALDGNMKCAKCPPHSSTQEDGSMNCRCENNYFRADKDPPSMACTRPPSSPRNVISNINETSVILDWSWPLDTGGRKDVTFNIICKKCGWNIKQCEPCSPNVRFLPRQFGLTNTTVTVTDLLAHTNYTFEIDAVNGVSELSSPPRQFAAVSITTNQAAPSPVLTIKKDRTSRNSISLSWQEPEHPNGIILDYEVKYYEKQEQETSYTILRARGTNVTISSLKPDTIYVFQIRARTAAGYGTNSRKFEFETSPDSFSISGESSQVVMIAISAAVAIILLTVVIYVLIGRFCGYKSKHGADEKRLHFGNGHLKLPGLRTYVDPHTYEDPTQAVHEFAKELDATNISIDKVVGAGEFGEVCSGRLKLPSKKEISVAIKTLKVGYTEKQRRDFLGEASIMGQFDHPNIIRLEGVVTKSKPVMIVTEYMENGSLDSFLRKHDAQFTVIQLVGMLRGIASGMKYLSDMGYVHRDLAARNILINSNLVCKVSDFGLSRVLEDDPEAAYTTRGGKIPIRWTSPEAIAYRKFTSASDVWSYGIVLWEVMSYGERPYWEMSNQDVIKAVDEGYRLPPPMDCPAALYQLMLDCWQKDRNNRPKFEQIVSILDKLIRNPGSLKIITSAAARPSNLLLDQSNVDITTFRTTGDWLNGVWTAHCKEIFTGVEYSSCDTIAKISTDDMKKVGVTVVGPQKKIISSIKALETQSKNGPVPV
Chain of AURKC (human) (Q9UQB9 whole entry, looked up): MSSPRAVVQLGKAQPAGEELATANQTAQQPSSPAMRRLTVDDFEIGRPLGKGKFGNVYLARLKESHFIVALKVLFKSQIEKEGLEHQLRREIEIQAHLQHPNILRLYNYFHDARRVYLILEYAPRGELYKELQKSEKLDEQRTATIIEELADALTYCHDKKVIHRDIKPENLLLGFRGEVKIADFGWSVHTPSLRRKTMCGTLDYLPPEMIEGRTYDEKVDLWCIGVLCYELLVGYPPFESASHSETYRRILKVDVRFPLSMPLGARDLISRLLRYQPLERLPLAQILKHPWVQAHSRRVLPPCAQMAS
Chain of FGR (human) (P09769 whole entry, looked up): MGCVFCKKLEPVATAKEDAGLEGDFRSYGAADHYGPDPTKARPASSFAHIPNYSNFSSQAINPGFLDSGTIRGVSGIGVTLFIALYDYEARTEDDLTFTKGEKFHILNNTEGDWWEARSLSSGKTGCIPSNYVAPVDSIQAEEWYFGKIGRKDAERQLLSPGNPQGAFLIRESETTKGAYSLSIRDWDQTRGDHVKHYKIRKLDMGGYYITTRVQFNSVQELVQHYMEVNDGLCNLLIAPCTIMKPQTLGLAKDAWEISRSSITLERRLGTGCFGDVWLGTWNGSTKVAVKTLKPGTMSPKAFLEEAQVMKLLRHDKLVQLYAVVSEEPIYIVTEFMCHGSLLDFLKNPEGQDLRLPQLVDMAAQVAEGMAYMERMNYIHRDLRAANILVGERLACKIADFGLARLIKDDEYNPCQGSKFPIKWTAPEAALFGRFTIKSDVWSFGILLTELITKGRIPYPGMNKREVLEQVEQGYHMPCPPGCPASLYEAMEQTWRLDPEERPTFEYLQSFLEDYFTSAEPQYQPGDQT

Row | Structure (SMILES) | residual activity [1] | residual activity [2] | residual activity [4] | residual activity [5] | residual activity [6] | residual activity [7] | residual activity [8] | residual activity [10] | residual activity [11] | residual activity [12] | residual activity [13] | residual activity [14] | residual activity [15] | residual activity [16] | residual activity [17] | residual activity [18] | residual activity [19] | residual activity [20] | residual activity [21] | residual activity [22] | other results
1 | O=C1Cc2c([nH]c3ccc(Br)cc23)-c2ccccc2N1 | 162% | 90.9% | 98.1% | 95.9% | 81.7% | 96.7% | 88% | 111% | 96% | 93.7% | 99.4% | 74.4% | 107% | 109% | 105% | 95.8% | 98.6% | 90.3% | 91.8% | 87.5% | residual activity [3]: 97.7%; residual activity [9]: 79.1%; residual activity [23]: 93.6%; residual activity [24]: 97.4%; residual activity [25]: 95.4%; residual activity [26]: 94%; residual activity [27]: 97.8%; residual activity [28]: 49.7%; residual activity [29]: 94.9%; residual activity [30]: 105%; residual activity [31]: 92.7%; residual activity [32]: 107%; residual activity [33]: 98.6%; residual activity [34]: 94%; residual activity [35]: 99.4%; residual activity [36]: 80.4%; residual activity [37]: 99.3%; residual activity [38]: 82.6%; residual activity [39]: 83.2%
2 | Oc1ccc(Nc2nc(-c3ccc(Cl)cc3)cs2)cc1 | 94.9% | 97% | 99.7% | 108% | 99% | 104% | 101% | 103% | 110% | 101% | 82.5% | 96.4% | 90.9% | 109% | 101% | 98.8% | 123% | 92% | 104% | 100% | residual activity [9]: 101%; residual activity [40]: 99.4%; residual activity [23]: 92.5%; residual activity [24]: 98.7%; residual activity [25]: 104%; residual activity [26]: 90.6%; residual activity [27]: 100%; residual activity [28]: 96.5%; residual activity [29]: 106%; residual activity [30]: 112%; residual activity [31]: 86.9%; residual activity [41]: 107%; residual activity [32]: 98%; residual activity [33]: 98.2%; residual activity [34]: 101%; residual activity [35]: 121%; residual activity [36]: 119%; residual activity [37]: 102%; residual activity [38]: 100%; residual activity [39]: 94.4%
3 | Cn1nc2c3c(cccc31)C(=O)c1ccccc1-2 | 110% | 89.3% | 100% | 98% | 87.5% | 92.7% | 88.7% | 102% | 93.5% | 87.6% | 99.5% | 93.4% | 105% | 113% | 102% | 82.7% | 99.6% | 86.4% | 86.7% | 87.2% | residual activity [9]: 90.2%; residual activity [40]: 107%; residual activity [23]: 96.7%; residual activity [24]: 97.7%; residual activity [25]: 78.3%; residual activity [26]: 96.6%; residual activity [27]: 98.6%; residual activity [28]: 86.4%; residual activity [29]: 97%; residual activity [30]: 107%; residual activity [31]: 92.3%; residual activity [41]: 97.3%; residual activity [32]: 107%; residual activity [33]: 98.5%; residual activity [34]: 104%; residual activity [35]: 101%; residual activity [36]: 98.4%; residual activity [37]: 95.4%; residual activity [38]: 92%; residual activity [39]: 94.9%
4 | COc1cc2ncc(-c3ccccc3)nc2cc1OC | 99.3% | 90.1% | 95.2% | 93.3% | 83.8% | 102% | 107% | 84.7% | 86.8% | 90.4% | 92.9% | 85.4% | 78.7% | 97.7% | 86.4% | 99.2% | 98.4% | 67.3% | 97.9% | 102% | residual activity [3]: 93.2%; residual activity [40]: 92.6%; residual activity [23]: 84.2%; residual activity [24]: 84.6%; residual activity [25]: 95.9%; residual activity [26]: 93.5%; residual activity [27]: 82.8%; residual activity [28]: 92.4%; residual activity [29]: 98.5%; residual activity [30]: 87.6%; residual activity [31]: 82.2%; residual activity [41]: 101%; residual activity [32]: 89.7%; residual activity [33]: 95.9%; residual activity [34]: 95.9%; residual activity [35]: 96.3%; residual activity [36]: 94.5%; residual activity [37]: 85.7%; residual activity [38]: 93.4%; residual activity [39]: 89.4%
5 | CN([C@@H](Cc1ccc(OS(=O)(=O)c2cccc3cnccc23)cc1)C(=O)N1CCN(c2ccccc2)CC1)S(=O)(=O)c1cccc2cnccc12 | 95% | 98.2% | 102% | 103% | 101% | 97.3% | 96.2% | 106% | 102% | 94.9% | 103% | 99.5% | 109% | 110% | 105% | 94.9% | 95.4% | 96.3% | 102% | 94.6% | residual activity [9]: 100%; residual activity [40]: 114%; residual activity [23]: 94.4%; residual activity [24]: 88.5%; residual activity [25]: 102%; residual activity [26]: 97.6%; residual activity [27]: 102%; residual activity [28]: 93.4%; residual activity [29]: 96.7%; residual activity [30]: 107%; residual activity [31]: 93%; residual activity [41]: 98.6%; residual activity [32]: 104%; residual activity [33]: 97.2%; residual activity [34]: 98.3%; residual activity [35]: 100%; residual activity [36]: 95.4%; residual activity [37]: 105%; residual activity [38]: 94.3%; residual activity [39]: 98.6%
